Laboratory results taken from patent US20260327234A1, “NOVEL COMPOUNDS AS CYP11A1 INHIBITORS AND METHODS OF USE THEREOF” (Shenzhen Ionova Life Science Co., Ltd., priority 2023, published 2026).

Legend:
[1] = molecular target: T1, testosterone (T) production in NCI-H295R cells (Homo sapiens, UniProt P05108); assay: H295R Steroid Biosynthesis Inhibition Assay - inhibition of testosterone (T) production in NCI-H295R cells; format: cell-based; conditions: 48 h, LC-MS/MS, read-out: Inh. of T IC50
T1 construct: testosterone measured by LC-MS/MS as downstream steroid
T1 sequence (P05108 40-521): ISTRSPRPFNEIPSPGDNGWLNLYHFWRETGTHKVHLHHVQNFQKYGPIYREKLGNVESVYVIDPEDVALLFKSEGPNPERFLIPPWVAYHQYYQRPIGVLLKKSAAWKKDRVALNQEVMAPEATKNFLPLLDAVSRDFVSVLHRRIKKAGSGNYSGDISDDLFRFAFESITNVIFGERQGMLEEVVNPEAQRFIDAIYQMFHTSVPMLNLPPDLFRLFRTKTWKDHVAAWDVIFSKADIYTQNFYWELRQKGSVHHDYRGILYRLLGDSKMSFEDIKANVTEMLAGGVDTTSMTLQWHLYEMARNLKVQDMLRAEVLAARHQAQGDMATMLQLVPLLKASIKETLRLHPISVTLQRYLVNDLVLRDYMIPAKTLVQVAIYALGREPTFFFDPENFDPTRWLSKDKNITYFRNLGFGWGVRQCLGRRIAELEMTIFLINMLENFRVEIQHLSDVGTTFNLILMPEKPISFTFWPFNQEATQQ
Method: (§1) Steroid Biosynthesis Inhibition by test compounds in NCI-H295R cells (ATCC) was studied by measuring the cellular production of pregnenolone (P) catalyzed by CYP11A1 and the downstream steroid, testosterone (T). Cells were cultured in Dulbecco's modified eagle's medium F12 (DMEM/F12) with phenol red (Gibco, Cat. No. 11330032) supplemented with 2% UltroserG (Pall, Cat. No. 15950-017, USA), 1% ITS-Premix and 1% penicillin and streptomycin (Hyclone, Cat. No. SV30010, USA). Prior to the assay, cells were thawed and passed 4 times. The maximal passage number used for the assay was 10. For this assay, DMEM/F12 without phenol red supplemented with 10% charcoal-stripped fetal bovine serum (VivaCell, Cat. No. C3830-0500, USA) were used. In a 96-well plate, 60,000 cells/well were plated (90 μL/well) and incubated for 24 h. Test compounds, diluted in a serial dilution ranging from 1000 nM to 0.15 nM in the assay medium, were added to the plate. After 48 h of incubation, solution from each well were collected and transferred to individual 1.5 mL centrifuge tubes, and then 5 ng/mL deuterated testosterone (D3-testosterone) and 50 ng/mL deuterated pregnenolone (D4-pregnenolone) in 200 μL acetonitrile were added. After vigorously mixing for 5 min, the mixture was centrifuged at 12,700 rpm for 15 min. An aliquot of 250 μL supernatant was collected and dried under N2 stream. After addition of 150 μL Methanol:water (1:1, v/v) to the dried product, 50 μL sample of this solution was injected into the LC-MS/MS system for analysis.
(§2) The half-maximal inhibitory concentration (IC50) for steroid biosynthesis inhibition was determined by curve-fitting with the 4-variable inhibitory dose response equation using GraphPad Prism software.
(§3) Testosterone and pregnenolone were analyzed using Shimadzu LC30AD HPLC system (Shimadzu, Kyoto, Japan) coupled with AB SCIEX Qtrap 5500 triple quadrupole mass spectrometer (AB Sciex, Framingham, MA, USA) via ESI interface in the positive ionization mode. An ACQUITY UPLC BEH Shield RP18 column (1.7 μm, 2.1×50 mm, Milford, MA, USA) maintained at 40° C. was used to separate analytes and IS form the sample matrix.
(§4) The mobile phase was a mixture of 10 mM ammonium acetate in water containing 0.2% formic acid (A) and methanol containing 0.2% formic acid (B) at a flow rate of 0.6 mL/min. The gradient program was set as follows: from 0 min to 0.5 min, 60% B; from 0.5 min to 3.5 min, 90% B; from 3.5 min to 4.5 min, 90% B; from 4.51 min to 5.0 min, 60% B. The injection volume was […].
(§5) The MS/MS parameters were set as follows: ion spray voltage, 5500 V; curtain gas, 35 psi; Gas 1, 55 psi; Gas 2: 55 psi; temperature, […]. The optimized multiple reaction monitoring (MRM) fragmentation transitions and MS parameters of each analyte are summarized in Table 1.

CYP11A1 = molecular target: T2, CYP11A1 (Homo sapiens, UniProt P05108); assay: H295R Steroid Biosynthesis Inhibition Assay - inhibition of pregnenolone (P) production catalyzed by CYP11A1 in NCI-H295R cells; format: cell-based; conditions: 48 h, LC-MS/MS, read-out: Inh. of P IC50
T2 construct: measuring the cellular production of pregnenolone (P) catalyzed by CYP11A1; host or cells: NCI-H295R
T2 sequence (P05108 40-521): T1 sequence (P05108 40-521)
Method: as §1, §2, §3, §4, §5

Row | IC50 [1] | IC50 (CYP11A1) | SMILES
1 | 41 to 100 nM | ≤ 40 nM | CS(=O)(=O)N1C[C@@H]2[C@@H](COc3coc(CN4Cc5ccccc5C4)cc3=O)[C@@H]2C1 [Compound 1, 2-(isoindolin-2-ylmethyl)-5-(((1R,5S,6r)-3-(methylsulfonyl)-3-azabicyclo[3.1.0]hexan-6-yl)methoxy)-4H-pyran-4-one]
2 | ≤ 40 nM | ≤ 40 nM | CS(=O)(=O)N1CCC(c2cc(Cl)c3cc(CN4Cc5ccccc5C4)ccc3n2)CC1 [Compound 77]
3 | ≥ 101 nM | 40 to 100 nM | O=C(c1ncc[nH]1)N1CCC(c2cnc3cc(CN4Cc5ccccc5C4)ccc3n2)CC1 [Compound 107]
4 | ≤ 40 nM | ≤ 40 nM | Cc1ccc2c(c1)CN(Cc1cc(=O)c3oc(C4CCN(S(C)(=O)=O)CC4)cc3o1)C2 [Compound 18]
5 | 41 to 100 nM | ≤ 40 nM | CC(Oc1ccc(CN2Cc3ccccc3C2)c2cccnc12)C1CCN(S(C)(=O)=O)CC1 (centres unmarked) [Compound 11]
6 | ≤ 40 nM | ≤ 40 nM | O=c1cc(CN2Cc3ccccc3C2)oc2cc(C3CC4(COC4)C3)oc12 [Compound 25]
7 | 41 to 100 nM | 40 to 100 nM | CC(C)(C)OC(=O)N1CCC(c2cnc3cc(CN4Cc5ccccc5C4)ccc3n2)CC1 [Compound 113]
8 | ≤ 40 nM | ≤ 40 nM | O=c1cc(CN2Cc3ccccc3C2)oc2cc([C@@H]3CC[C@@H](O)[C@@H](F)C3)oc12 [Compound 30]
9 | ≥ 101 nM | 40 to 100 nM | O=C(C(F)F)N1CCC(c2cnc3cc(CN4Cc5ccccc5C4)ccc3n2)CC1 [Compound 103]
10 | ≥ 101 nM | 40 to 100 nM | O=C(c1ccccc1)N1CCC(c2cnc3cc(CN4Cc5ccccc5C4)ccc3n2)CC1 [Compound 104]
11 | ≥ 101 nM | ≥ 100 nM | O=S1(=O)CCC(c2cnc3cc(CN4Cc5ccccc5C4)ccc3n2)CC1 [Compound 124]
12 | ≤ 40 nM | ≤ 40 nM | CS(=O)(=O)N1CCC(c2ccc3cc(CN4Cc5ccccc5C4)ccc3c2)CC1 [Compound 66]
13 | ≤ 40 nM | ≤ 40 nM | O=C(OC1CCCC1)N1CCC(c2cnc3cc(CN4Cc5ccccc5C4)ccc3n2)CC1 [Compound 114]
14 | ≥ 101 nM | ≥ 100 nM | CS(=O)(=O)N1CCC(c2cc(=O)c3nc(CN4Cc5ccccc5C4)ccc3o2)CC1 [Compound 61]
15 | ≤ 40 nM | ≤ 40 nM | CS(=O)(=O)N1CCC(c2cnc3cc(CN4Cc5ccccc5C4)cnc3c2)CC1 [Compound 80]
16 | ≤ 40 nM | ≤ 40 nM | CS(=O)(=O)N1CCC(c2ccc3cc(CN4Cc5ccccc5C4)cnc3c2)CC1 [Compound 67]
17 | ≤ 40 nM | 40 to 100 nM | CC(C)(O)[C@H]1CC[C@H](c2cc3oc(CN4Cc5ccccc5C4)cc(=O)c3o2)CC1 [Compound 32]

Row | IC50 [1] | IC50 (CYP11A1) | SMILES
18 | ≤ 40 nM | ≤ 40 nM | CS(=O)(=O)N1C[C@@H]2[C@H](C1)[C@H]2c1ccc2cc(CN3Cc4ccccc4C3)ccc2n1 [Compound 56, 6-(isoindolin-2-ylmethyl)-2-((1R,5S,6r)-3-(methylsulfonyl)-3-azabicyclo[3.1.0]hexan-6-yl)quinoline]
19 | ≤ 40 nM | ≤ 40 nM | CC(c1cc(=O)c2oc([C@H]3CC[C@H](O)CC3)cc2o1)N1Cc2ccccc2C1 (some centres unmarked) [Compound 31]
20 | 41 to 100 nM | ≤ 40 nM | O=C(NCC(F)(F)F)N1CCC(c2cnc3cc(CN4Cc5ccccc5C4)ccc3n2)CC1 [Compound 120]
21 | ≥ 101 nM | ≥ 100 nM | O=C(NC1COC1)N1CCC(c2cnc3cc(CN4Cc5ccccc5C4)ccc3n2)CC1 [Compound 118]
22 | ≥ 101 nM | ≤ 40 nM | Cn1c(C2CCN(S(C)(=O)=O)CC2)nc2cc(CN3Cc4ccccc4C3)ccc21 [Compound 129]
23 | ≤ 40 nM | ≤ 40 nM | CS(=O)(=O)N1CC=C(c2coc3cc(CN4Cc5ccccc5C4)ccc3c2=O)CC1 [Compound 65]
24 | 41 to 100 nM | ≤ 40 nM | CS(=O)(=O)N1CCC(N2CCc3cc(CN4Cc5ccccc5C4)ccc3C2=O)CC1 [Compound 64]
25 | 41 to 100 nM | ≤ 40 nM | CS(=O)(=O)N1CCC(COc2coc(CN3CCn4c(Cl)ccc4C3)cc2=O)CC1 [Compound 4]
26 | ≤ 40 nM | ≤ 40 nM | C[C@]1(O)CC[C@H](c2cc3oc(CN4Cc5ccccc5C4)cc(=O)c3o2)CC1 [Compound 27]
27 | ≥ 101 nM | ≥ 100 nM | CS(=O)(=O)N1CCC(c2cnc3cc(CN4CCn5cccc5C4)ccc3n2)CC1 [Compound 125]
28 | ≤ 40 nM | ≤ 40 nM | CS(=O)(=O)N1CCC(c2cc3oc(CN4Cc5ccc(F)cc5C4)cc(=O)c3o2)CC1 [Compound 17]
29 | ≤ 40 nM | 40 to 100 nM | O=c1cc(CN2Cc3ccccc3C2)oc2cc([C@H]3CC[C@@](O)(C(F)(F)F)CC3)oc12 [Compound 37]
30 | ≥ 101 nM | ≥ 100 nM | CP(C)(=O)c1ccc(-c2cc3oc(CN4Cc5ccccc5C4)cc(=O)c3o2)cc1 [Compound 50]
31 | 41 to 100 nM | ≤ 40 nM | CC(C)(C)NC(=O)N1CCC(c2cnc3cc(CN4Cc5ccccc5C4)ccc3n2)CC1 [Compound 119]
32 | ≥ 101 nM | ≥ 100 nM | CC(=O)N1CCC(c2cnc3cc(CN4Cc5ccccc5C4)ccc3n2)CC1 [Compound 101]
33 | ≤ 40 nM | ≤ 40 nM | CS(=O)(=O)N1CCC(c2ccc3nc(CN4Cc5ccccc5C4)cc(=O)n3c2)CC1 [Compound 59]
34 | 41 to 100 nM | ≤ 40 nM | CS(=O)(=O)N1CC=C(c2ccc3nc(CN4Cc5ccccc5C4)cnc3c2)CC1 [Compound 81]
